The results in this text go back to patent publication US20180020662A1, “Substituted 1-cycloalkyl-2-oxotetrahydroquinolin-6-ylsulfonamides or salts thereof and use thereof to increase stress tolerance in plants” (BAYER CROPSCIENCE AKTIENGESELLSCHAFT, priority 2015, published 2018).

This assay concerns the target T1, phosphatase ABI1 via the co-regulator RCAR11/PYR1 (Arabidopsis thaliana, UniProt O49686+P49597).
T1 sequence (O49686 1-191): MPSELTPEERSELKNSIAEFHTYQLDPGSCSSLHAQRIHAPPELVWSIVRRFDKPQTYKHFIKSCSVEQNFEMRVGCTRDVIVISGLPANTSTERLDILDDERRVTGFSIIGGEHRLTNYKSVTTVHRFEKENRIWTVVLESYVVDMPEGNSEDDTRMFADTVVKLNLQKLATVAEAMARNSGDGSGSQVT
T1 sequence (P49597 1-434): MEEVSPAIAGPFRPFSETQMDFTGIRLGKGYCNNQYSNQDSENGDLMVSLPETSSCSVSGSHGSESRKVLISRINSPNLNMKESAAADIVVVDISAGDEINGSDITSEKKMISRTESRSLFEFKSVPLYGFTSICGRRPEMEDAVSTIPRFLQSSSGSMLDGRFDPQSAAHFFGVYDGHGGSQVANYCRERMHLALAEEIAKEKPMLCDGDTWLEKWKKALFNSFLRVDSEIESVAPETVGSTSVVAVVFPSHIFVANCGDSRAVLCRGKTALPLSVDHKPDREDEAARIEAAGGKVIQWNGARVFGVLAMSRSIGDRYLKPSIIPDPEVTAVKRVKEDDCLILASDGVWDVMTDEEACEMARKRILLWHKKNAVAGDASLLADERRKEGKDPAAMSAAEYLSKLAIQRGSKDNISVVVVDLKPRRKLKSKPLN
The experiment in a line: In vitro assay: inhibition of ABI1 dephosphorylation of 4-methylumbelliferyl phosphate (MUP), fluorescence. In kind it is biochemical. The conditions noted are these: concentration of 5 mM of the substance in DMSO and water, 35° C., 20 minutes. From the text: Effects of the phytohormone abscisic acid (ABA) on the behavior of plants under abiotic stress and the mechanism of action of ABA are described in the literature (cf. Abrams et al., WO97/23441, Park et al. Science, 2009, 324, 1068; Grill et al. Science, 2009, 324, 1064; Tanokura et al. Biophysics, 2011, 7, 123; Schroeder et al. Plant J. 2010, 61, 290). Therefore, it is possible with the aid of a suitable in vitro test system to derive a correlation between the action of ABA and the stress response of a plant under abiotic stress. In the event of water deficiency (drought stress), plants form the phytohormone abscisic acid (ABA). This binds, along with a co-regulator (Regulatory Component of ABA-Receptor=RCAR according to Grill et al. Science, 2009, 324, 1064 or PYR/PYL according to Cutler et al. Science, 2009, 324, 1068), to a phosphatase (e.g. ABI1, a type 2C protein phosphatase, also abbreviated to PP2C) and inhibits its activity. As a result, a “downstream” kinase (e.g. SnRK2) is no longer dephosphorylated. This kinase, which is thus active, via phosphorylation of transcription factors (e.g. AREB/ABF, cf. Yoshida et al Plant J. 2010, 61, 672), switches on a genetic protection program to increase drought stress tolerance. The assay described hereinafter utilizes the inhibition of the phosphatase ABI1 via the co-regulator RCAR11/PYR1 aus Arabidopsis thaliana. For the determination of activity, the dephosphorylation of 4-methylumbelliferyl phosphate (MUP) was measured at 460 nm. The in vitro assay was conducted in Greiner 384-well PS microplates F-well, using two controls: a) 0.5% dimethyl sulfoxide (DMSO) and b) 5 μM abscisic acid (ABA). The assay described here was generally conducted with substance concentrations of the appropriate chemical test substances in a concentration range of 0.1 μM to 100 μM in a solution of DMSO and water. The substance solution thus obtained, if necessary, was stirred with esterase from porcine liver (EC 3.1.1.1) at room temperature for 3 h and centrifuged at 4000 rpm for 30 min. A total volume of 45 μl was introduced into each cavity of the microplate, having the following composition: • 1) 5 μl of substance solution, i.e. a) DMSO 5% or b) abscisic acid solution or c) the corresponding example compound of the general formula (I) dissolved in 5% DMSO. • 2) 20 μl of enzyme buffer mix, composed of a) 40% by vol. of enzyme buffer (10 ml contain equal proportions by volume of 500 mM Tris-HCl pH 8, 500 mM NaCl, 3.33 mM MnCl2, 40 mM dithiothreitol (DTT)), b) 4% by vol. of ABI1 dilution (protein stock solution was diluted so as to give, after addition, a final concentration in the assay of 0.15 μg ABI1/well), c) 4% by vol. of RCAR11 dilution (enzyme stock was diluted so as to give, on addition of the dilution to the enzyme buffer mix, a final concentration in the assay of 0.30 μg enzyme/well), d) 5% by vol. of Tween20 (1%), e) 47% by vol. H2O bi-dist. • 3) 20 μl of substrate mix, composed of a) 10% by vol. of 500 mM Tris-HCl pH 8, b) 10% by vol. of 500 mM NaCl, c) 10% by vol. of 3.33 mM MnCl2, d) 5% by vol. of 25 mM MUP, 5% by vol. of Tween20 (1%), 60% by vol. of H2O bi-dist.
Enzyme buffer mix and substrate mix were made up 5 minutes prior to the addition and warmed to a temperature of 35° C. On completion of pipetting of all the solutions and on completion of mixing, the plate was incubated at 35° C. for 20 minutes. Finally, a relative fluorescence measurement was made at 35° C. with a BMG Labtech “POLARstar Optima” microplate reader using a 340/10 nm excitation filter and a 460 nm emission filter. The efficacy of the compounds of the general formula (I) is reported in the table which follows using abscisic acid […] as comparative substance (no. 38) according to the following classification: ++++(inhibition ≧90%), +++(90% >inhibition ≧70%), ++(70% >inhibition ≧50%), +(50% >inhibition ≧30%). […]
On to `Cc1ccc(CS(=O)(=O)Nc2ccc3c(c2)CCC(=O)N3C23CC(C2)C3)cc1` [A30-152], for which the ABI1 inhibition result was “++++ (inhibition ≧90%)”.
To `CC1CC(N2C(=O)CCc3cc(NS(=O)(=O)Cc4ccc(Cl)cc4)ccc32)C1` (centres unmarked) [A26-165, 1-(4-Chlorophenyl)-N-[1-(3-methylcyclobutyl)-2-oxo-1,2,3,4-tetrahydroquinolin-6-yl]methanesulfonamide] belongs “++++ (inhibition ≧90%)”.
With `Cc1ccc(CS(=O)(=O)Nc2ccc3c(c2)CCC(=O)N3C2(C)CC2)cc1` [A1-152], the ABI1 inhibition result is reported as “++++ (inhibition ≧90%)”.
To `Cc1ccc(S(=O)(=O)Nc2ccc3c(c2)CCC(=O)N3C23CC(C2)C3)cc1` [A30-50] belongs “++ (70% >inhibition ≧50%)”.
To `CC1CC(N2C(=O)CCc3cc(NS(=O)(=O)Cc4ccc(C(C)(C)C)cc4)ccc32)C1` (centres unmarked) [A26-332] belongs “++++ (inhibition ≧90%)”; to `O=C1CCc2cc(NS(=O)(=O)Cc3cc(F)cc(F)c3)ccc2N1C1CC1C1CC1` (centres unmarked) [A16-164], “++ (70% >inhibition ≧50%)”.
To `O=C1CCc2cc(NS(=O)(=O)Cc3cccc(Cl)c3)ccc2N1C12CC(C1)C2` [A30-166] belongs “++ (70% >inhibition ≧50%)”; to `Cc1ccc(CS(=O)(=O)Nc2ccc3c(c2)CCC(=O)N3C2CC(C)C2)cc1` (centres unmarked) [A26-152], “++++ (inhibition ≧90%)”.
Consider `Cc1ccc(CS(=O)(=O)Nc2ccc3c(c2)CCC(=O)N3C2(C3CC3)CC2)cc1` [A3-152, N-{1-[1,1′-bi(cyclopropyl)-1-yl]-2-oxo-1,2,3,4-tetrahydroquinolin-6-yl}-1-(4-methylphenyl)methanesulfonamide], for which the ABI1 inhibition entry is “++++ (inhibition ≧90%)”.
Next, `CCc1ccc(CS(=O)(=O)Nc2ccc3c(c2)CCC(=O)N3C2(C3CC3)CC2)cc1` [A3-325]: “++++ (inhibition ≧90%)”; `O=C1CCc2cc(NS(=O)(=O)Cc3cccc(F)c3)ccc2N1C12CC(C1)C2` [A30-159]: “+++ (90% >inhibition ≧70%)”.
Next, `N#Cc1ccc(CS(=O)(=O)Nc2ccc3c(c2)CCC(=O)N3C23CC(C2)C3)cc1` [A30-181]: “++++ (inhibition ≧90%)”; `O=C1CCc2cc(NS(=O)(=O)Cc3cccc(Cl)c3)ccc2N1C1(C2CC2)CC1` [A3-166]: “+++ (90% >inhibition ≧70%)”; `O=C1CCc2cc(NS(=O)(=O)Cc3ccc(C(F)(F)F)cc3)ccc2N1C12CC(C1)C2` [A30-178, N-[1-(Bicyclo[1.1.1]pent-1-yl)-2-oxo-1,2,3,4-tetrahydroquinolin-6-yl]-1-[4-(trifluoromethyl)phenyl]methanesulfonamide]: “++++ (inhibition ≧90%)”.
Take `CC1(N2C(=O)CCc3cc(NS(=O)(=O)Cc4ccc(F)cc4)ccc32)CC1` [A1-158]: the ABI1 inhibition entry was “++++ (inhibition ≧90%)”.
Next, `N#Cc1ccc(CS(=O)(=O)Nc2ccc3c(c2)CCC(=O)N3C2CC3(CCC3)C2)cc1` [A33-181, 1-(4-Cyanophenyl)-N-[2-oxo-1-(spiro[3.3]hept-2-yl)-1,2,3,4-tetrahydroquinolin-6-yl]methanesulfonamide]: “+++ (90% >inhibition ≧70%)”; `O=C1CCc2cc(NS(=O)(=O)Cc3ccc(F)cc3)ccc2N1C1CC1C1CC1` (centres unmarked) [A16-158]: “+++ (90% >inhibition ≧70%)”.
Next, `CC1CC(N2C(=O)CCc3cc(NS(=O)(=O)Cc4cc(F)cc(F)c4)ccc32)C1` (centres unmarked) [A26-164]: “++++ (inhibition ≧90%)”.
On to `O=C1CCc2cc(NS(=O)(=O)Cc3ccc(Cl)cc3)ccc2N1C1CC2(CCC2)C1` [A33-165], for which the ABI1 inhibition result is reported as “+++ (90% >inhibition ≧70%)”.
With `Cc1ccc(CS(=O)(=O)Nc2ccc3c(c2)CCC(=O)N3C2CC2C2CC2)cc1` (centres unmarked) [A16-152, N-{1-[1,1′-bi(cyclopropyl)-2-yl]-2-oxo-1,2,3,4-tetrahydroquinolin-6-yl}-1-(4-methylphenyl)methanesulfonamide], the ABI1 inhibition result is reported as “++++ (inhibition ≧90%)”.
With `CC(C)(C)c1ccc(CS(=O)(=O)Nc2ccc3c(c2)CCC(=O)N3C2CC2C2CC2)cc1` (centres unmarked) [A16-332], the ABI1 inhibition entry is recorded as “+++ (90% >inhibition ≧70%)”.
As to `CC1CC(N2C(=O)CCc3cc(NS(=O)(=O)Cc4ccc([N+](=O)[O-])cc4)ccc32)C1` (centres unmarked) [A26-175], the ABI1 inhibition entry was “++++ (inhibition ≧90%)”.
To `O=C1CCc2cc(NS(=O)(=O)Cc3ccc(Cl)cc3)ccc2N1C1CC1C1CC1` (centres unmarked) [A16-165] belongs “++++ (inhibition ≧90%)”; to `CC1=CC(=O)CC(C)(C)[C@@]1(O)/C=C/C(C)=C\C(=O)O` [abscisic acid, reference compound], “++++ (inhibition ≧90%)”.
To `CC1CC(N2C(=O)CCc3cc(NS(=O)(=O)Cc4cccc(C#N)c4)ccc32)C1` (centres unmarked) [A26-182] belongs “++++ (inhibition ≧90%)”; to `Cc1cccc(CS(=O)(=O)Nc2ccc3c(c2)CCC(=O)N3C2(C3CC3)CC2)c1` [A3-153], “+++ (90% >inhibition ≧70%)”.
